In the experiment the target is T1, glutaminase (GAC) (Homo sapiens, UniProt O94925).
T1 sequence (O94925 55-598 isoform O94925-3 limits assumed): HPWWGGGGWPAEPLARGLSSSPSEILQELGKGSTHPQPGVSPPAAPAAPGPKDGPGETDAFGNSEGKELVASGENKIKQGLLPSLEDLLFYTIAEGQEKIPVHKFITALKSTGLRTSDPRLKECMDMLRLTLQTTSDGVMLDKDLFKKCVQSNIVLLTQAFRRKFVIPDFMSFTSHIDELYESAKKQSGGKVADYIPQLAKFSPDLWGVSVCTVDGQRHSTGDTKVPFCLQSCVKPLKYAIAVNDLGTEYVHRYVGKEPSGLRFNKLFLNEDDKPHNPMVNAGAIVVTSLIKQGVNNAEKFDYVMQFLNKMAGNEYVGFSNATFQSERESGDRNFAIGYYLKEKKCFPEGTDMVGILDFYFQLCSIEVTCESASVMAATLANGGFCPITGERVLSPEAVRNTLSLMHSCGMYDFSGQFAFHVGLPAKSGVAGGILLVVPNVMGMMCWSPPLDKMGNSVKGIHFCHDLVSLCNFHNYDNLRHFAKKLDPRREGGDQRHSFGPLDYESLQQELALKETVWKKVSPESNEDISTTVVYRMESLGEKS
The experiment in a line: Glutaminase coupled endpoint enzymatic assay (Example A). The class given is biochemical. As to conditions: inhibition of glutaminase; assay of Example A or Example B. From the text: In certain embodiments, exemplary compounds of Formula I include the compounds described in Table 1 and in the Examples. A compound described herein may be tested for its ability to inhibit glutaminase, e.g., by an assay as described in the Examples. For simplicity, the inhibition activity of these compounds is represented as an IC50 tested in an assay of Example A or Example B in Table 1. […] “N/A” refers to compounds wherein the IC50 is unavailable.
In this example, the enzymatic activity of glutaminase is measured through a coupled endpoint assay. Glutamine and phosphate are supplied to GAC at a concentration equal to Km and AC50, respectively, and GAC concentration is adjusted to give a linear reaction for 60 minutes. The glutamate produced is converted to 2-OG by a kinetic excess of glutamate dehydrogenase. This second step is configured for 2×Km for NAD, since excess NAD is inhibitory. However, a kinetic excess of the third coupling enzyme, diaphorase, recycles NAD from NADH to keep the NAD concentration constant during the timecourse of the assay. Diaphorase, also supplied in kinetic excess, oxidizes NADH produced by GDH back to NAD with the concomitant reduction of rezasurin to the highly fluorescent resorufin. Resorufin in measured after the assay is stopped with SDS by Ex544/Em590. A reduction in the signal indicates inhibition of some component of the coupled enzyme system. Prospective hits are counterscreened against GDH/diaphorase alone to remove hits to the coupling enzyme system in a second assay.
2. Buffers • 2× Buffer (300 mM NaCl, 100 mM HEPES pH 8.5, 0.1% BSA, 0.5 mM EDTA, 100 mM sodium phosphate pH 8.5) • 5× Substrate Mix (1× Buffer final concentration, with 13 mM glutamine, 100 μM resazurin, 50 μg/ml diaphorase) • 1.2× Enzyme Mix (1× Buffer final concentration, with 0.875 μg/ml GAC, 1.56 mM NAD, 6.25 units/ml GDH) • Stop Mix (6% SDS in ddH2O) Reaction Procedure • 1. Add 1 μl compound in 100% DMSO • 2. Add 40 μl of Enzyme Mix and incubate for 60 minute at room temperature • 3. Add 10 μl of Substrate Mix to start reaction • 4. Stop reaction with 25 μl of 6% SDS and read Ex544 Em 590

The compound `COc1cccc(CC(=O)Nc2nnc([C@@H]3CCCC[C@H](c4nnc(NC(=O)Cc5cccc(OC)c5)s4)C3)s2)c1` [Compound 128] gave an IC50 of 500 to 1000 nM.

In the case of `COc1cccc(CC(=O)Nc2nnc([C@@H]3CCCC[C@@H](c4nnc(NC(=O)Cc5cccc(OC)c5)s4)C3)s2)c1` [Compound 129], the IC50 lay within 500 to 1000 nM.

Consider `COc1ccc(CC(=O)Nc2nnc([C@@H]3CCCC[C@@H](c4nnc(NC(=O)Cc5ccc(OC)cc5)s4)C3)s2)cc1` [Compound 130], for which the IC50 was in the range of 1000 to 2000 nM. With `O=C(Cc1cccc2c1OCO2)Nc1nnc([C@H]2CCC[C@H](c3nnc(NC(=O)Cc4cccc5c4OCO5)s3)C2)s1` [Compound 218, N,N′-(5,5′-((1S,3S)-cyclohexane-1,3-diyl)bis(1,3,4-thiadiazole-5,2-diyl))bis(2-(benzo[d][1,3]dioxol-4-yl)acetamide)], the IC50 is less than 100 nM.

On to `O=C(Cc1cccc(OC(F)(F)F)c1)Nc1nnc([C@H]2CCC[C@H](c3nnc(NC(=O)Cc4cccc(OC(F)(F)F)c4)s3)C2)s1` [Compound 219, N,N′-(5,5′-((1S,3S)-cyclohexane-1,3-diyl)bis(1,3,4-thiadiazole-5,2-diyl))bis(2-(3-(trifluoromethoxy)phenyl)acetamide)], for which the IC50 lay in the range of 1000 to 2000 nM.

As for `O=C(Cc1cccc(Br)c1)Nc1nnc([C@H]2CCC[C@H](c3nnc(NC(=O)Cc4cccc(Br)c4)s3)C2)s1` [Compound 220, N,N′-(5,5′-((1S,3S)-cyclohexane-1,3-diyl)bis(1,3,4-thiadiazole-5,2-diyl))bis(2-(3-bromophenyl)acetamide)], the IC50 lay within 100 to 500 nM. For the compound `COc1ccc(CC(=O)Nc2nnc([C@H]3CCC[C@H](c4nnc(NC(=O)Cc5ccc(OC)nc5)s4)C3)s2)cn1` [Compound 221, N,N′-(5,5′-((1S,3S)-cyclohexane-1,3-diyl)bis(1,3,4-thiadiazole-5,2-diyl))bis(2-(6-methoxypyridin-3-yl)acetamide)], the IC50 is less than 100 nM.

`O=C(Cc1cscn1)Nc1nnc([C@H]2CCC[C@H](c3nnc(NC(=O)Cc4cscn4)s3)C2)s1` [Compound 222, N,N′-(5,5′-((1S,3S)-cyclohexane-1,3-diyl)bis(1,3,4-thiadiazole-5,2-diyl))bis(2-(thiazol-4-yl)acetamide)] returned an IC50 of less than 100 nM.

Turning to `COc1ccnc(CC(=O)Nc2nnc([C@H]3CCC[C@H](c4nnc(NC(=O)Cc5cc(OC)ccn5)s4)C3)s2)c1` [Compound 223, N,N′-(5,5′-((1S,3S)-cyclohexane-1,3-diyl)bis(1,3,4-thiadiazole-5,2-diyl))bis(2-(4-methoxypyridin-2-yl)acetamide)], the IC50 is less than 100 nM.

For the compound `COc1cc(CC(=O)Nc2nnc([C@H]3CCC[C@H](c4nnc(NC(=O)Cc5ccnc(OC)c5)s4)C3)s2)ccn1` [Compound 224, 2-(2-methoxypyridin-4-yl)-N-[5-[(1S,3S)-3-[5-[[2-(2-methoxypyridin-4-yl)acetyl]amino]-1,3,4-thiadiazol-2-yl]cyclohexyl]-1,3,4-thiadiazol-2-yl]acetamide], the IC50 was less than 100 nM.

For the compound `COc1ccc(CC(=O)Nc2nnc([C@H]3CCC[C@H](c4nnc(NC(=O)Cc5ccc(OC)cn5)s4)C3)s2)nc1` [Compound 225, N,N′-(5,5′-((1S,3S)-cyclohexane-1,3-diyl)bis(1,3,4-thiadiazole-5,2-diyl))bis(2-(5-methoxypyridin-2-yl)acetamide)], the IC50 was less than 100 nM. The figure for `CCOc1ccc(CC(=O)Nc2nnc([C@H]3CCC[C@H](c4nnc(NC(=O)Cc5ccc(OCC)cn5)s4)C3)s2)nc1` [Compound 226, N,N′-(5,5′-((1S,3S)-cyclohexane-1,3-diyl)bis(1,3,4-thiadiazole-5,2-diyl))bis(2-(5-ethoxypyridin-2-yl)acetamide)] is less than 100 nM; for `O=C(Cc1ccc(OC(F)F)cn1)Nc1nnc([C@H]2CCC[C@H](c3nnc(NC(=O)Cc4ccc(OC(F)F)cn4)s3)C2)s1` [Compound 228, N,N′-(5,5′-((1S,3S)-cyclohexane-1,3-diyl)bis(1,3,4-thiadiazole-5,2-diyl))bis(2-(5-(difluoromethoxy)pyridin-2-yl)acetamide)] it is less than 100 nM; for `N#Cc1cccc(CC(=O)Nc2nnc([C@H]3CCC[C@H](c4nnc(NC(=O)Cc5cccc(C#N)n5)s4)C3)s2)n1` [Compound 229, N,N′-(5,5′-((1S,3S)-cyclohexane-1,3-diyl)bis(1,3,4-thiadiazole-5,2-diyl))bis(2-(6-cyanopyridin-2-yl)acetamide)] it is less than 100 nM. Turning to `O=C(Cc1ccncn1)Nc1nnc([C@H]2CCC[C@H](c3nnc(NC(=O)Cc4ccncn4)s3)C2)s1` [Compound 230, N,N′-(5,5′-((1S,3S)-cyclohexane-1,3-diyl)bis(1,3,4-thiadiazole-5,2-diyl))bis(2-(pyrimidin-4-yl)acetamide)], the IC50 lay in the range of 1000 to 2000 nM. In the case of `O=C(Cc1cccnn1)Nc1nnc([C@H]2CCC[C@H](c3nnc(NC(=O)Cc4cccnn4)s3)C2)s1` [Compound 231, N,N′-(5,5′-((1S,3S)-cyclohexane-1,3-diyl)bis(1,3,4-thiadiazole-5,2-diyl))bis(2-(pyridazin-3-yl)acetamide)], the half-maximal inhibitory concentration (IC50) was 100 to 500 nM. In the case of `Nc1cccc(CC(=O)Nc2nnc([C@H]3CCC[C@H](c4nnc(NC(=O)Cc5cccc(N)n5)s4)C3)s2)n1` [Compound 232, N,N′-(5,5′-((1S,3S)-cyclohexane-1,3-diyl)bis(1,3,4-thiadiazole-5,2-diyl))bis(2-(6-aminopyridin-2-yl)acetamide)] it was less than 100 nM; in that of `Nc1ccc(CC(=O)Nc2nnc([C@H]3CCC[C@H](c4nnc(NC(=O)Cc5ccc(N)cn5)s4)C3)s2)nc1` [Compound 233, N,N′-(5,5′-((1S,3S)-cyclohexane-1,3-diyl)bis(1,3,4-thiadiazole-5,2-diyl))bis(2-(5-aminopyridin-2-yl)acetamide)], less than 100 nM; in that of `CN(C)C(=O)c1ccc(CC(=O)Nc2nnc([C@H]3CCC[C@H](c4nnc(NC(=O)Cc5ccc(C(=O)N(C)C)cn5)s4)C3)s2)nc1` [Compound 234, 6-[[5-[3-[5-[[2-[5-(dimethylcarbamoyl)pyridin-2-yl]acetyl]amino]-1,3,4-thiadiazol-2-yl]cyclohexyl]-1,3,4-thiadiazol-2-yl]carbamoylmethyl]-N,N-dimethyl-pyridine-3-carboxamide], 100 to 500 nM. The compound `CCN(CC)c1cccc(CC(=O)Nc2nnc([C@H]3CCC[C@H](c4nnc(NC(=O)Cc5cccc(N(CC)CC)c5)s4)C3)s2)c1` [Compound 235, N,N′-(5,5′-((1S,3S)-cyclohexane-1,3-diyl)bis(1,3,4-thiadiazole-5,2-diyl))bis(2-(3-(diethylamino)phenyl)acetamide)] returned an IC50 of 500 to 1000 nM. Consider `CCNc1cccc(CC(=O)Nc2nnc([C@H]3CCC[C@H](c4nnc(NC(=O)Cc5cccc(NCC)c5)s4)C3)s2)c1` [Compound 236, N,N′-(5,5′-((1S,3S)-cyclohexane-1,3-diyl)bis(1,3,4-thiadiazole-5,2-diyl))bis(2-(3-(ethylamino)phenyl)acetamide)], for which the half-inhibitory concentration (IC50) is less than 100 nM.

`CCN(CC)c1ccc(CC(=O)Nc2nnc([C@H]3CCC[C@H](c4nnc(NC(=O)Cc5ccc(N(CC)CC)cc5)s4)C3)s2)cc1` [Compound 237, N,N′-(5,5′-((1S,3S)-cyclohexane-1,3-diyl)bis(1,3,4-thiadiazole-5,2-diyl))bis(2-(4-(diethylamino)phenyl)acetamide)] gave an IC50 of 500 to 1000 nM. For the compound `CS(=O)(=O)Nc1ccc(CC(=O)Nc2nnc([C@H]3CCC[C@H](c4nnc(NC(=O)Cc5ccc(NS(C)(=O)=O)cc5)s4)C3)s2)cc1` [Compound 238, N,N′-(5,5′-((1S,3S)-cyclohexane-1,3-diyl)bis(1,3,4-thiadiazole-5,2-diyl))bis(2-(4-(methylsulfonamido)phenyl)acetamide)], the IC50 was less than 100 nM.

(Values after patent publication US9029531B2 (Agios Pharmaceuticals, Inc., priority 2012, dated 2015).)
